Experimental data as given in US5919765A, “Inhibitors of factor XA” (COR Therapeutics, Inc., priority 1995, dated 1999).
Numbered stars: 1 amine (or outer) side, 2 acyl side, 3 side chain; on linkers, the order of the positions; unused ones are H or OH. Square brackets hold non-standard residues; d marks the D form. Peptide text beside a SMILES is read from it. * marks the point of attachment. dCit = NC(=O)NCCC[C@@H](N)C(=O)O; Suc = O=C(CCC(=O)[*:2])[*:1]; Boc = CC(C)(C)OC(=O)*; Aib = CC(C)(N)C(=O)O

Assays:
thrombin = target: T1, thrombin (Homo sapiens, UniProt P00734); assay: Thrombin amidolytic assay (chromogenic substrate Chromozym TH); format: biochemical; details: read-out: Inhibitory Activity (IC50) Thrombin
T1 construct: The formation of thrombin is the result of the proteolytic cleavage of its precursor prothrombin

Rabbits [1] = assay: Cuticle Bleeding Time model in rabbits; format: in vivo, rabbit; details: 1500 μg/kg+14.85 μg/kg/min
Protocol: In an ancillary study, a Cuticle Bleeding Time model was used to evaluate the effect of test compounds on bleeding time (BT) measurements in rabbits. The standardized protocol involved anesthesia and catheterization of rabbits as previously described in this Example 43. To measure BT, a toe nail was cut 5 mm from the base of the cuticle with a canine nail trimming device. Time until cessation of bleeding was recorded by wicking the blood on to BT blotting paper in 30 second intervals. Test compound was administered as a bolus followed by infusion regimen. Two BT measurements were obtained prior to administration of test compound and three BT measurements accomplished serially after initiation of steady state infusion of test compound. BT measurements were allowed to continue for up to 30 minutes at which time it was stopped with application of silver nitrate. Blood samples were obtained just prior to all BT measurements and processed for measurement of hematological and coagulation parameters.

Rabbits [2] = assay: Rabbit deep vein thrombosis model; format: in vivo
Description: Haemost. […] Rabbits were anesthetized with I.M. injections of Ketamine, Xylazine, and Acepromazine cocktail.

[3] = rabbit venous thrombosis model, bolus + infusion

SMILES	IC50 (thrombin)	also measured
CC(C)(C)OC(=O)N[C@H](CCCCN)C(=O)NCC(=O)N[C@H](C=O)CCCNC(=N)N [Boc--D--Lys--Gly--Arg--H, Boc-D-Lys-Gly-Arg--H] (Boc-[dK]-Gly-Arg-aldehyde)	> 100 µM	–
CCOC(=O)N[C@H](CCCNC(=N)N)C(=O)NCC(=O)N[C@H](C=O)CCCNC(=N)N [EtOCO--D--Arg--Gly--Arg--H, EtO2 C-D-Arg-Gly-Arg--H]	> 100 µM	–
N=C(N)NCCC[C@@H](C=O)NC(=O)CNC(=O)[C@@H](CCCNC(=N)N)NC(=O)CC(=O)O [HOOCCH2 CO--D--Arg--Gly--Arg--H, Malonoyl-D-Arg-Gly-Arg--H]	> 100 µM	–
CC(C)(C)OC(=O)N[C@H](CCCNC(N)=O)C(=O)NCC(=O)N[C@H](C=O)CCCNC(=N)N [Boc--D--Cit--Gly--Arg--H, Boc-D-Cit-Gly-Arg--H] (Boc-[dCit]-Gly-Arg-aldehyde)	> 100 µM	–
CC(C)(C)OC(=O)N[C@H](CCCN=C(N)N)C(=O)NCC(=O)N[C@H](C=O)CCCN=C(N)N [Boc--D--Arg--Gly--Arg--H, Boc-D-Arg-Gly-Arg--H] (Boc-[dR]-Gly-Arg-aldehyde)	–	changes in hematological parameters from pre to post administration (Rabbits [1]): no significant changes; effects on hematological parameters as compared to saline controls (Rabbits [2]; [3]): no significant effects
CC(C)(C)OC(=O)N[C@H](CCCNC(=N)N)C(=O)NCC(=O)N[C@H](C=O)CCCNC(=N)N [Boc--D--Arg--Gly--Arg--H, Boc-D-Arg-Gly-Arg--H] (Boc-[dR]-Gly-Arg-aldehyde)	–	% Inhibition of Thrombosis (Rabbits [2]; 200 + 1.98 μg/kg + μg/kg/min): 8.4%; % Inhibition of Thrombosis (Rabbits [2]; 600 + 5.94 μg/kg + μg/kg/min): -6.6%; antithrombotic efficacy (Rabbits [2]; [3]): demonstrated antithrombotic efficacy at the higher doses evaluated
CC(C)(C)OC(=O)N[C@H](CCCNC(=N)N)C(=O)NC(C)(C)C(=O)N[C@H](C=O)CCCNC(=N)N [Boc--D--Arg--Aib--Arg--H, Boc-D-Arg-Aib-Arg--H] (Boc-[dR]-[Aib]-Arg-aldehyde)	> 500 µM	–
N=C(N)NCCC[C@@H](C=O)NC(=O)CNC(=O)[C@@H](CCCNC(=N)N)NC(=O)CCC(=O)O [HOOC(CH2)2 CO--D--Arg--Gly--Arg--H, Succinoyl-D-Arg-Gly-Arg--H] (Suc-[dR]-Gly-Arg-aldehyde)	> 100 µM	–
